Reference: patent publication US10543284B2, “Anti-c-Met antibody and anti-c-Met antibody-cytotoxic drug conjugate and pharmaceutical use thereof” (Suzhou Suncadia Biopharmaceuticals Co., Ltd., priority 2015, dated 2020)
Read-outs that look alike come from different tables or passages of the source. Each block holds one molecule with its values, some of them ahead of it. *1 amine or outer side, *2 acyl side, *3 side chain or, on linkers, in order; H or OH if unused. Where a SMILES comes first, the peptide text is derived from it. [ ]: non-standard residue; d: D form. X1 = CO[C@H]([C@@H](C)C(=O)[*:2])[C@@H]1C[C@@H]2C[C@@H]2N1[*:1]; Dolaproine = CO[C@@H]([C@@H]1CCCN1)[C@@H](C)C(=O)O; Dil = CC[C@H](C)[C@H](NC)[C@@H](CC(=O)O)OC; Phe(2-F) = N[C@@H](Cc1ccccc1F)C(=O)O; NMeV = CN[C@H](C(=O)O)C(C)C

How the values were obtained:
[1] = tested on: MKN45 cell; experiment: ATP cytotoxicity test (CellTiter-Glo, 72 hours) in MKN45; type: cell-based, human
Method: In order to assess the toxic effects of the ADC molecules of the present invention on cells, the ATP toxicity test was performed. ATP is an indicator of the metabolism of living cells, and the detection of ATP can reflect the effect of the toxicity of molecules on cells.
HepG2 cells (Chinese Academy of Sciences cell bank, Cat # TCHu 72) were cultivated in EMEM complete medium containing 10% FBS, and MKN45 cells were cultivated in RPMI1640 complete medium containing 10% FBS. Trypsinization was performed for 2-3 min by adding 2-3 ml trypsin, 10-15 ml complete medium was added to elute the trypsinized cells when the trypsinization was complete, and the cells were centrifuged at 1000 rpm for 3 min. The supernatant was discarded, 10-20 ml complete medium was added to resuspend the cells to obtain a single cell suspension, and the cell density was adjusted to 4×10^4 cells/ml. 0.1 ml of the above cell suspension was added to each well of a 96-well cell culture plate and cultivated in an incubator at 37° C. in 5% CO2. […] The chemiluminescence was measured by a microplate reader (VICTOR 3, PerkinElmer), and the result was analyzed by GraphPad Prism (version 5.0) software.

[2] = tested on: HepG2 cell; experiment: ATP cytotoxicity test (CellTiter-Glo, 72 hours) in HepG2; type: cell-based, human
[3] = tested on: a variety of human tumor cell lines; settings: cited from earlier work
[4] = target: T1, human c-Met-His (Homo sapiens, UniProt P08581); experiment: ELISA binding of c-Met antibody to c-Met antigen; settings: hybridoma fusion clones, ELISA read at 450 nm
T1 construct: His (C); made in house; host or cells: 293F cells
T1 sequence (P08581 25-932 limits assumed): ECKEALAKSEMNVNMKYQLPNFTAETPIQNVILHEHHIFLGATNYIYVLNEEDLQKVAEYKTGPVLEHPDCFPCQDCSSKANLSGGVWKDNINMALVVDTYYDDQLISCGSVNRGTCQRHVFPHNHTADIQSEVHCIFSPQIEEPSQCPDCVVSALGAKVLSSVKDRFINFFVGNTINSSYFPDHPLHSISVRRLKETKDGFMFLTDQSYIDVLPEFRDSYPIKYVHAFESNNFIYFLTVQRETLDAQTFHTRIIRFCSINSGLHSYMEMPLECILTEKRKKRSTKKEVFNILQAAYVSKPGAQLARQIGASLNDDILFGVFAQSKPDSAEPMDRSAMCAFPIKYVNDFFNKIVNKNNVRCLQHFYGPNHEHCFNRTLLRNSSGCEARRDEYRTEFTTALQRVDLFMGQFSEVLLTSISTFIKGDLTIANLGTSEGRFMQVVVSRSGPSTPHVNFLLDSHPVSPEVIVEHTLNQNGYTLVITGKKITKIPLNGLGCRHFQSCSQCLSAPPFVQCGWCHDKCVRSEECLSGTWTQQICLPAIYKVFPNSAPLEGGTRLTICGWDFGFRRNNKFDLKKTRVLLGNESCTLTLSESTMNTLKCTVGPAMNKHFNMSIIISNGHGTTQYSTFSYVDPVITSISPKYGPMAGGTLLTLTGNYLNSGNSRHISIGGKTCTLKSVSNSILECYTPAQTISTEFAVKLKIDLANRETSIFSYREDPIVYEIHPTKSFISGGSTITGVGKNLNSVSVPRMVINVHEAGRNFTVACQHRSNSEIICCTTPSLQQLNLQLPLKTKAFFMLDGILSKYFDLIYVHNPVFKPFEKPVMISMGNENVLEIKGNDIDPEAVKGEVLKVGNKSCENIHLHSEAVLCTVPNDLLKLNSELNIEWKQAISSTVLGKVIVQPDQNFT
Method: This experiment uses enzyme linked immunosorbent assay (ELISA) to detect affinity of c-Met antibody to c-Met antigen in vitro (including supernatant of hybridoma or recombinantly expressed monoclonal antibodies).
Experimental procedures: Coating buffer (PBS; Hyclone, Cat No.: SH30256.01B) was used to dilute antigen (human c-Met-His, example 1) to 2 μg/ml, which was added to 96-well plate with 100 μl/well (Costar 9018, Cat No.: 03113024) and incubated overnight at 4′C. […] The plate was read with plate reader at 450 nm.
After immunization, mice with a serum titer higher than 1:10^5 were selected for fusion. Mouse B-cells and myeloma cells (SP2/0, ATCC number: CRL-1581™) were prepared respectively in aseptic conditions and counted. […] The next day, positive clones were detected by ELISA (see Methods in Example 2).

[5] = tested on: MKN45 cells; experiment: Inhibition of proliferation of MKN45 gastric cancer cells (CellTiter-Glo, 5 days); type: cell-based, human; settings: monoclone culture supernatant, 5 days
Excerpt: The clones above were selected and further cultured to obtain monoclones. After verification of binding activity by ELISA, monoclones were selected for cultivation, and the resulting supernatant was subjected to a cell viability assay. According to the experiment principle, anti-human c-Met antibodies of the invention are able to inhibit phosphorylation of c-Met expressed on the surface of human gastric cancer cell line MKN45, thereby inhibiting the proliferation of MNK45 cells.
Human gastric cancer cells (MKN45, JCRB, JCRB0254, P11) were added to a 96-well cell culture plate (costar, #3799) at 1×10^5 cells/mL and 50 μl/well. The medium was RPMI1640 medium: (GIBCO, cat #11835)+10% FBS (GIBCO-10099141). Anti-human c-Met antibodies to be tested were added at 50 μl/well, and the plate was cultured for 5 days in incubator at 37′C (Manufacture: SANYO; Equipment No. TINC035). CellTiter-Glo® Luminescent Cell Viability Assay (Promega, G7573) was used, and the proliferation of cells was detected according to the instructions. The plate was read by a PerkinElmer plate reader, TREA001-RDA-IBA100. The following formula was used to calculate the percentage proliferation of cells: % proliferation of cells=(1−cell reads in experimental group/cell reads in untreated group)×100%.

Molecule: CC[C@H](C)[C@@H]([C@@H](CC(=O)N1CCC[C@H]1[C@H](OC)[C@@H](C)C(=O)N[C@@H](Cc1ccccc1)C(=O)O)OC)N(C)C(=O)[C@@H](NC(=O)[C@@H](NC)C(C)C)C(C)C [MMAF, reference compound] (H-[NMeV]V[Dil][Dolaproine]F-OH)
- IC50 [1]: 0.85 nM
- IC50 ([2]; ND: No activity was detected): 4.88 nM

Molecule: CC[C@H](C)C([C@@H](CC(=O)N1CCC[C@H]1[C@H](OC)[C@@H](C)C(=O)N[C@H](C)[C@@H](O)c1ccccc1)OC)N(C)C(=O)[C@@H](NC(=O)[C@@H](NC)C(C)C)C(C)C (stereo partly shown) [MMAE, Monomethyl aurantatin E]
- inhibitory activities against a variety of human tumor cell lines [3]: less than one nanomolar

Molecule: CC[C@H](C)[C@@H]([C@@H](CC(=O)N1[C@H]2C[C@H]2C[C@H]1[C@H](OC)[C@@H](C)C(=O)N[C@@H](Cc1ccccc1F)C(=O)O)OC)N(C)C(=O)[C@@H](NC(=O)[C@@H](NC)C(C)C)C(C)C [12 g, (S)-2-((2R,3R)-3-((1S,3S,5S)-2-((3R,4S,5S)-4-((S)—N,3-dimethyl-2-((S)-3-methyl-2-(methylamino)butyramide)butyramide)-3-methoxy-5-methylheptanoyl)-2-azabicyclo[3.1.0]hexane-3-yl)-3-methoxy-2-methylpropanamido)-3-(2-fluorophenyl)propionic acid] (H-[NMeV]V[Dil][X1][Phe(2-F)]-OH)
- IC50 ([1]; Homo sapiens, MKN-45): 79.4 nM
- IC50 ([2]; Homo sapiens, HepG2, ND: No activity was detected): 401 nM

- Detection Results (OD450) [4]: 1.64
B1: Ab-5: mouse hybridoma cell monoclonal antibody; heavy chain variable region SEQ ID NO: 4, light chain variable region SEQ ID NO: 5 (antibody, V domains shown)
VH: QVQLKQSGPGLVQPSQSLSITCTVSGFSLPNYGVHWVRQSPGKGLEWLGVIWSGGSTNYAAAFVSRLRISKDNSKSQVFFEMNSLQADDTAVYYCARNHDNPYNYAMDYWGQGTTVTVSS
VL: DIVLTQSPGSLAVYLGQRATISCRANKSVSTSTYNYLHWYQQKPGQPPKLLIYLASNLASGVPARFSGSGSGTDFTLNIHPLEEEDAATYYCQHSRDLPPTFGAGTKLELKR
modifications: Murine
- MKN45 inhibition percentage (%) [5]: 77.4%
